Reference: US20220087961A1, “TREATMENT METHODS OF TRIPHENYL CALCILYTIC COMPOUNDS” (CALCILYTIX THERAPEUTICS, INC., priority 2020, published 2022)

Tests used:
subjects with ADH1 [1] = experiment: Phase 2b open-label dose-ranging study, Period 1 / Cohort 1; assay type: in vivo, human
Description: A Phase 2b, open-label dose-ranging study is designed to evaluate the safety, tolerability, and efficacy of CLTX-305 to maintain normalized albumin-corrected blood calcium (cCa) in subjects with hypocalcemia due to ADH1. An overview scheme of the Phase 2b study is illustrated in FIG. 2.
Period 1: an inpatient stay that consists of 5 dosing days during which subjects will undergo a once-daily (QD) dose escalation for 3 days followed by 2 days of twice daily (BID) dosing at an individualized test dose of CLTX-305.
In Period 1, eligible Cohort 1 subjects are admitted to the NIH CC after completing screening tests. On days 1-3 of admission, Cohort 1 subjects will undergo single daily dosing and protocol-specified dose-escalation of CLTX-305 from the initial dose of 30 mg on Day 1, increasing to a maximum dose of 180 mg on Day 3. Based on the individualized responses to QD dose escalation an individualized dose of CLTX-305 will be chosen for BID administration on Days 4 and 5.
Days 1, 2 and 3 (QD Dose Escalations): Up to 8 subjects (minimum of 5) will undergo a single-dose, dose-escalation over the first 3 days of admission in Period 1. Morning doses will be administered on Days 1, 2 and 3, respectively, accompanied by frequent blood and urine sampling for 24-hours for PK/PD measures. CLTX-305 will be administered in the morning within 30 minutes prior to breakfast. If dose escalation is limited due to tolerability or hypercalcemia, then the investigator, in consultation with sponsor, may choose to interrupt the pre-specified dose escalation. In this case, the investigator, in consultation with sponsor, may choose to repeat the last well tolerated dose on Days 2 and 3, or titrate down as appropriate.
Days 4 and 5 (BID Dose Escalation): Based on each subject's individual PD responses to QD dose-escalation, an individualized dose of CLTX-305 will be chosen for BID dosing on Days 4 and 5. CLTX-305 will be administered once in the morning and once in the evening, within 30 minutes prior to breakfast and dinner. The dose selected should be based on each subject's response in cCa and/or PTH levels during the prior QD dosing (Days 1-3).
Days 1, 2 and 3 (QD Dose Escalations): Up to 8 subjects (minimum of 5) will undergo a single-dose, dose-escalation over the first 3 days of admission. Morning doses of 30, 90 and 180 mg will be administered on Days 1, 2 and 3, respectively, accompanied by frequent blood and urine sampling for 24-hours for PK/PD measures (For details of PK/PD assays and timepoints as shown in Table 4A-Table 4C, Table 5, and Table 6A-Table 6C CLTX-305 will be administered in the morning, with water, within 30 minutes prior to breakfast. If dose escalation is limited due to tolerability or hypercalcemia, the investigator, in consultation with sponsor, may choose to repeat the last well-tolerated dose on Days 2 and 3, or down-titrate, as appropriate (See below for dosing guidance algorithm).
In order to characterize both the pre-study calcemic status as well as changes associated with experimental interventions, the protocol will rely on frequent measurement of albumin-corrected blood calcium concentrations. Assays will be conducted according to specifications of the NIH Clinical Center Laboratory, Bethesda, Md. The main indicator of normal versus abnormal blood calcium levels will be based on the correction for serum or plasma albumin according to the formula corrected calcium (cCa)=measured total calcium (mg/dL)+0.8(4−albumin (g/dL)) OR measured total calcium (mmol/L)+0.2(4−albumin (g/dL)), recognizing that the total calcium reported in SI units (mmol/L) can be converted to conventional units (mg/dL) by multiplying by 4. Given that enrolled subjects are expected to have both normal and stable albumin levels, the measures of total calcium and cCa are likely to be similar throughout the time course of this study. […]

subjects with ADH1 [2] = experiment: Phase 2b open-label dose-ranging study, Period 2; assay type: in vivo, human
Description: Period 2: an inpatient stay that consists of 5 dosing days during which subjects will receive BID doses of CLTX-305 based on individual responses from Period 1 (for subjects who complete Period 1) or review of aggregate data from Period 1 (for subjects in Cohort 2 entering Period 2 without prior exposure to CLTX-305). The initial dose, dose level 1 (DL1) will be administered for 2 days (48 hours) with cCa monitoring. Participants will undergo encaleret dose up- or down-titration depending on cCa levels, with a potential increase in dose if cCa remains below the lower limit of normal and potential decrease in dose if cCa is greater than or equal to the upper limit of normal. A final test day (Day 5) will include frequent blood and urine sampling to collect 24-hour PK/PD profiles after at least 3 consecutive days of dosing (at either DL1 or DL2).
In Period 2, eligible Cohort 1 subjects, who have completed Period 1, may return after at least 8 weeks for admission to NIH for Period 2. After all Cohort 1 subjects have finished Period 1 and the data analyzed, the Sponsor will open enrolment for Cohort 2 subjects. Eligible Cohort 2 subjects may enroll directly into Period 2, after completing the screening and consent process per protocol. In Period 2 all subjects will initiate CLTX-305 BID dosing given within 30 minutes prior to breakfast and dinner on Days 1 and 2. cCa concentrations will be monitored frequently throughout Period 2, and CLTX-305 doses will be up- or down-titrated as needed to target normal cCa concentrations. Assessment of the 24-hour PK/PD profile of CLTX-305 with BID dosing will be conducted on Day 5.
As a result, all remaining subjects in Period 2 will receive an initial CLTX-305 90 mg BID dose for at least 3-4 doses for evaluation of safety, tolerability and the ability to modulate cCa levels. The CLTX-305 dose will be up- or down-titrated as needed to maintain cCa levels below 10 mg/dL and blood phosphorus levels above the lower limit of normal. […]

CaSR = biological target: T1, CaSR (Homo sapiens, UniProt P41180); details: cell-based assays at 2 mM extracellular calcium; read-out: IC50, inhibition of the CaSR via allosteric modulation; cited from earlier work
T1 sequence (P41180 20-1078): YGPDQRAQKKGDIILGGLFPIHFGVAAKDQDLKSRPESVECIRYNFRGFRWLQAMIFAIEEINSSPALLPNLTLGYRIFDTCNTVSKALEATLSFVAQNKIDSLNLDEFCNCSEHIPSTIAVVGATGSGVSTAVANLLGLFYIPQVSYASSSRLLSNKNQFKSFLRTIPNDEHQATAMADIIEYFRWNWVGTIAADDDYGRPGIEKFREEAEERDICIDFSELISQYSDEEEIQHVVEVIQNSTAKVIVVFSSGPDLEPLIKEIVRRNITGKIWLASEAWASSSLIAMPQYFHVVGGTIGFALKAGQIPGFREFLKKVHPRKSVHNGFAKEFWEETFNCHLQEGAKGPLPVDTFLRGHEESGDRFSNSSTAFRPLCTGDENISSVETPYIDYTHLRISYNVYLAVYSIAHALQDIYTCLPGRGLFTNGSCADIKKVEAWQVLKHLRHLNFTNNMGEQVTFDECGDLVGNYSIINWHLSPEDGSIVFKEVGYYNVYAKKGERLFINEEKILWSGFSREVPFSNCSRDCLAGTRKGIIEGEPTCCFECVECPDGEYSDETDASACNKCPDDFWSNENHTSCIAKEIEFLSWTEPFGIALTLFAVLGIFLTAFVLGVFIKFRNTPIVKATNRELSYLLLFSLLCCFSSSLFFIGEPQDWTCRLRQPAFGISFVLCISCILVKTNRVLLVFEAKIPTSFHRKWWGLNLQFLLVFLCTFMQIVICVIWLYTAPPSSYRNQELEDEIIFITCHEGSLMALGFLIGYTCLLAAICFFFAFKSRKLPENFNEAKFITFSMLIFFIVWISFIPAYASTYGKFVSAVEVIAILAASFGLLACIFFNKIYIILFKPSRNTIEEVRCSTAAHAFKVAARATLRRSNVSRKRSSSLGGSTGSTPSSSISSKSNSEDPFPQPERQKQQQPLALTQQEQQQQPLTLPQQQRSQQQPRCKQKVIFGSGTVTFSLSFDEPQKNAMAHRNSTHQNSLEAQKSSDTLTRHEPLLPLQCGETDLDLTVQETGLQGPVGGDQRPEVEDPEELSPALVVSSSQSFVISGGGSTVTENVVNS

[3] = cited from earlier work
[4] = non-clinical data; cited from earlier work
[5] = cited from earlier work; remark: listed apart in the source
[6] = test system: healthy volunteers and postmenopausal women with osteoporosis; details: cited from earlier work
healthy subjects = details: single oral dose of up to 100 mg; cited from earlier work
[7] = preclinical; dose-limiting effects were mechanism-based serum calcium elevations; cited from earlier work
rabbits = details: fetuses; cited from earlier work
subjects with ADH1 [8] = details: subjects with ADH1, sample size of 5; cited from earlier work
[9] = humans, most single doses or steady-state
[10] = not significant when body weight taken into account

Cc1cc(-c2ccccc2[C@@H](C)OC[C@H](O)CNC(C)(C)Cc2ccc(Cl)c(F)c2)ccc1C(=O)O [CLTX-305, encaleret]
serious adverse events (subjects with ADH1 [1]; Period 1): no serious adverse events reported | plasma exposure, dose relation (FIG. 8) (subjects with ADH1 [1]; Period 1, 30-180 mg): dose proportional increase in plasma exposure | Number of AEs (subjects with ADH1 [1]; Period 1, N=6): 9 n | tolerability (subjects with ADH1 [1]; Period 1, escalating oral doses once or twice daily over 5 days): well-tolerated | PTH, mean level over 24 hours by day 5 (subjects with ADH1 [1]; Period 1, n=6, mean±SD, baseline 3.4±4.5): 64.8 ± 49.6 pg/mL | Magnesium, 24-hour day 5 mean (subjects with ADH1 [1]; Period 1, n=6, baseline 1.6±0.4): 2.0 ± 0.5 mg/dL | Phosphorus, 24-hour day 5 mean (subjects with ADH1 [1]; Period 1, n=6, baseline 4.5±0.7): 2.9 ± 0.5 mg/dL | Albumin-corrected blood calcium (cCa), 24-hour mean on day 5 (subjects with ADH1 [1]; Period 1, n=6, baseline 7.6±0.6): 9.0 ± 0.5 mg/dL | Twenty-four hour urine calcium on day 5 (subjects with ADH1 [1]; Period 1, n=6, screening 436±255 on conventional therapy): 63 ± 127 mg/day | subjects in whom urinary calcium excretion became normal (subjects with ADH1 [1]; Period 1, of 6): 3 subjects | subjects in whom urinary calcium excretion became undetectable (subjects with ADH1 [1]; Period 1, of 6): 3 subjects | serious adverse events (subjects with ADH1 [2]; Period 2 (Periods 1 and 2)): no serious adverse events reported | tolerability (subjects with ADH1 [2]; Period 2 (Periods 1 and 2), once or twice daily over 5 days): well-tolerated | Number of AEs (subjects with ADH1 [2]; Period 2, n=13): 12 n | IC50 (CaSR): 86.2 nM | dose proportionality of plasma concentrations ([3]; 5, 10, 15, 30, 50 and 100 mg, fasted state): Dose-proportional increases | age-related or race differences in pharmacokinetics ([3]; US population vs. Japanese subjects): No significant age-related or race differences | half-life of CLTX-305 at steady state ([3]; as stated in the study assessment section): 10 to 14 h | food effect on plasma concentrations ([3]; dose range 5-100 mg): without significant food effect | tmax median [3, 9]: 1.5 h | tmax range [3, 9]: 0.75 to 3 h | elimination half-life (t1/2) after single doses ([3]; humans, single doses): approximately 6.5 hours | elimination half-life (t1/2) at steady state ([3]; humans, steady state (14 days)): 11 to 14 h | excretion of unchanged CLTX-305 and metabolites into urine ([3]; humans, total of parent and metabolite): < 5% | AUC higher in females [3, 10]: approximately 37% | Cmax higher in females [3, 10]: ~30% | accumulation ([3]; once daily (QD) for two weeks, Japanese postmenopausal women): minimal accumulation | main route of elimination [4]: fecal excretion was the main route of elimination | increase in AUC0-24 on co-administration with ketoconazole [5]: approximately 2 × | increase in Cmax on co-administration with ketoconazole [5]: approximately 1.67 × | acute safety and tolerability ([6]; 5-100 mg, non-ADH1 subjects): acutely safe and well tolerated | safety issues or signals ([6]; acute dosing up to 100 mg, chronic dosing up to 15 mg QD, over 1300 healthy males and post-menopausal women): no specific safety issues or signals were seen | subjects with blood calcium above the upper limit of the laboratory reference range ([6]; chronic once-daily dosing up to 15 mg, postmenopausal women, long-term trials): up to 30% | serious adverse events related to hyper- or hypocalcemia ([6]; osteoporosis program, postmenopausal women): No serious adverse events (SAEs) | tolerability in humans during chronic treatment ([6]; up to and beyond 12 months): generally well tolerated | QTc prolongation (healthy subjects): no clinically meaningful QTc prolongation | off-target or organ-specific toxicities [7]: no off-target or other tissue or organ-specific toxicities were identified | dose at which incidence of fetal skeletal anomalies (fusion of the sternebra) was increased (rabbits): ≥ 30 mg/kg

CC(C)(CC1Cc2ccccc2C1)NC[C@@H](O)COc1cc(CCC(=O)O)ccc1C#N [NPSP795]
dose-response on iPTH (subjects with ADH1 [8]): preliminary evidence for a dose-response on iPTH
